According to patent publication US20120245137A1 (Zalicus Pharmaceuticals Ltd., priority 2009, published 2012):
pIC50: −log10 of the molar value. Where two headings read alike, the source gives them in different places.

Assays:
male CF1 mice = experiment: 6 Hz psychomotor seizure model of partial epilepsy; format: in vivo; design: concentration or dose not given beside the values; details: 6 Hz 32 mA corneal stimulus
Description: Compounds can also be evaluated for the protection against seizures induced by a 6 Hz, 0.2 ms rectangular pulse width of 3 s duration, at a stimulus intensity of 32 mA (CC97) applied to the cornea of male CF1 mice (20-30 g) according to procedures described by Barton et al, “Pharmacological Characterization of the 6 Hz Psychomotor Seizure Model of Partial Epilepsy,” Epilepsy Res. 47(3):217-27 (2001). Seizures are characterised by the expression of one or more of the following behaviours: stun, forelimb clonus, twitching of the vibrissae and Straub-tail immediately following electrical stimulation.

mice [1] = details: mouse, in vivo
Description: (§2) In mice, the rotarod procedure (Dunham and Miya, J. Am. Pharmacol. Assoc. 46:208-209 (1957)) is used to disclose minimal muscular or neurological impairment (MMI). When a mouse is placed on a rod that rotates at a speed of 6 rpm, the animal can maintain its equilibrium for long periods of time. The animal is considered toxic if it falls off this rotating rod three times during a 1-min period.

[2] = molecular target: N-type calcium channel subunits (α1B, α2δ, and β3a) (Homo sapiens, UniProt Q00975); experiment: Block of Cav2.2 channel, whole cell voltage clamp, manual and PatchXpress; format: cell-based; details: Table 5; table follows Assay Example 3 (whole cell voltage clamp / PatchXpress); assay not given
Outline: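 Percent block taken as current amplitude ratio with versus without compound, applied in rising doses; IC50 fitted where one cell received multiple doses. Protocol: 50 ms pulses to +20 mV at 0.067 Hz from […] or −90 mV holding; P/n leak subtraction, no junction-potential correction; manual and PatchXpress recordings.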

mice [3] = experiment: Mouse rotarod assay; details: rod at 6 rpm
Description: as §2

[4] = molecular target: human α1H T-type channels (Homo sapiens, UniProt O95180); experiment: T-type calcium channel block, whole cell patch clamp, α1H; format: cell-based; details: HEK cells stably expressing human α1H; mainly non-inactivated protocol; values above 10,000 nM represented as 10000
Chain of human α1H T-type channels (O95180 whole entry): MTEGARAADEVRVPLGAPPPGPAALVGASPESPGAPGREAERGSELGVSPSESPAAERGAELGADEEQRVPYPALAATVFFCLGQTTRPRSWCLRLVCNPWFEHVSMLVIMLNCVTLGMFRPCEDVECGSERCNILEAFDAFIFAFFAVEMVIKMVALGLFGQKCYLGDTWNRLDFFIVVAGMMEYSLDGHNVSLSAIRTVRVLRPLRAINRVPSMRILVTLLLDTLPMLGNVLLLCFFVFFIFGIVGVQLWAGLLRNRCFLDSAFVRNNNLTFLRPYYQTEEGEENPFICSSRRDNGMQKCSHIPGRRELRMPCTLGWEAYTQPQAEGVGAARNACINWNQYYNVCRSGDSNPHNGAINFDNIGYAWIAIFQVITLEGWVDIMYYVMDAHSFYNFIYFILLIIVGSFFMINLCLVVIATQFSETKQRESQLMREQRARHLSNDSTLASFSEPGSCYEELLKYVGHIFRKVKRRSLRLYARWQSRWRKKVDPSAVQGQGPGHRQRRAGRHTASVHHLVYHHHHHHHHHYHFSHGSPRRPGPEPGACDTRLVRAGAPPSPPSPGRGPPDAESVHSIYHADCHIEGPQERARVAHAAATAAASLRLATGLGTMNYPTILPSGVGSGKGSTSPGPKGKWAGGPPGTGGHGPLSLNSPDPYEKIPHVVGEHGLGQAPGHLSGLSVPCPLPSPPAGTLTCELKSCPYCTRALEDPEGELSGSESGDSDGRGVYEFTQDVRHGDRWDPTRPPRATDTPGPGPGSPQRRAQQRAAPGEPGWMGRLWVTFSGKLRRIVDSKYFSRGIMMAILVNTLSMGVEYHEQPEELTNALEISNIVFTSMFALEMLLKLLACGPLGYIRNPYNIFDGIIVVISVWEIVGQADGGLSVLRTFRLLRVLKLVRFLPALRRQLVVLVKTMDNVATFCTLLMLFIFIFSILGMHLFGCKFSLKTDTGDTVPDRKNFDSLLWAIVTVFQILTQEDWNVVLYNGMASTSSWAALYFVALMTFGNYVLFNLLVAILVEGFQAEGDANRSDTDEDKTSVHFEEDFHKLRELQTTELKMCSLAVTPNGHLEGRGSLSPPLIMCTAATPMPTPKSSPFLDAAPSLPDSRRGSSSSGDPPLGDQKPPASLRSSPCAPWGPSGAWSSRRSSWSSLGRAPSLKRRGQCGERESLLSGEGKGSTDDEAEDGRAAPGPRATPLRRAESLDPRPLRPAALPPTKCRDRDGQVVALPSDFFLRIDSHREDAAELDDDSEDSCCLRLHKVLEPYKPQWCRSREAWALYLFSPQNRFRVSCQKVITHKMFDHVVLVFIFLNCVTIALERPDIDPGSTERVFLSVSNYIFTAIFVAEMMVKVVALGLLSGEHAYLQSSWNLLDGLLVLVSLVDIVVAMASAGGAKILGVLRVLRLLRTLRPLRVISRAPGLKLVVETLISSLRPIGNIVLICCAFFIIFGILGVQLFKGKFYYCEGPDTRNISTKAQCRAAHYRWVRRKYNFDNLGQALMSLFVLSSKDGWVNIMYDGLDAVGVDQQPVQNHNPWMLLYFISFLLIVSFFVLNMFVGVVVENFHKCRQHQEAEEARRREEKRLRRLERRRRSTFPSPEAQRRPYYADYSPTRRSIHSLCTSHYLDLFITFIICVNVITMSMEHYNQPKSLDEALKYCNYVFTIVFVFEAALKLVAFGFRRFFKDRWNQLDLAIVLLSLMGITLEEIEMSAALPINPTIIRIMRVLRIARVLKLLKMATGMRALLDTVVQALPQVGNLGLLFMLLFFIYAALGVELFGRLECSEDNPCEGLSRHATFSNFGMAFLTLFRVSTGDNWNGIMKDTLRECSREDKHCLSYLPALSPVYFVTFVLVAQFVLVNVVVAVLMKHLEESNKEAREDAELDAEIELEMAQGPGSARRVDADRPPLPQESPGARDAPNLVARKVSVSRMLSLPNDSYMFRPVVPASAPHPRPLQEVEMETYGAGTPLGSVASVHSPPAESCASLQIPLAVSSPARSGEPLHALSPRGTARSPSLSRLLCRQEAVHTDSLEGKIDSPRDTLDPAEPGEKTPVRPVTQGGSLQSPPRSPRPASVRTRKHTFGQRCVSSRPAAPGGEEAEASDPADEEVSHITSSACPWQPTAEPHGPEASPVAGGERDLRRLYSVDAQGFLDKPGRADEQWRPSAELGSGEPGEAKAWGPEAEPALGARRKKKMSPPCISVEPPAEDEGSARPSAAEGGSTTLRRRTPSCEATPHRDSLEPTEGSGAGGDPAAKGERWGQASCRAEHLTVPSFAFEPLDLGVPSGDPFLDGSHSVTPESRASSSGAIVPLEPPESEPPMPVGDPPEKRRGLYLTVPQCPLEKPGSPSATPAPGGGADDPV
Outline: (§1)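 Cells are stable HEK 293 lines carrying human α1G or α1H channels, patched in whole-cell mode. Resting block comes from the non-inactivated pre-pulse; voltage-dependent block from the inactivated protocol.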

[5] = molecular target: human α1G T-type channels (Homo sapiens, UniProt O43497); experiment: T-type calcium channel block, whole cell patch clamp, α1G; format: cell-based; details: HEK cells stably expressing human α1G; mainly non-inactivated protocol; values above 10,000 nM represented as 10000
Chain of human α1G T-type channels (O43497 whole entry): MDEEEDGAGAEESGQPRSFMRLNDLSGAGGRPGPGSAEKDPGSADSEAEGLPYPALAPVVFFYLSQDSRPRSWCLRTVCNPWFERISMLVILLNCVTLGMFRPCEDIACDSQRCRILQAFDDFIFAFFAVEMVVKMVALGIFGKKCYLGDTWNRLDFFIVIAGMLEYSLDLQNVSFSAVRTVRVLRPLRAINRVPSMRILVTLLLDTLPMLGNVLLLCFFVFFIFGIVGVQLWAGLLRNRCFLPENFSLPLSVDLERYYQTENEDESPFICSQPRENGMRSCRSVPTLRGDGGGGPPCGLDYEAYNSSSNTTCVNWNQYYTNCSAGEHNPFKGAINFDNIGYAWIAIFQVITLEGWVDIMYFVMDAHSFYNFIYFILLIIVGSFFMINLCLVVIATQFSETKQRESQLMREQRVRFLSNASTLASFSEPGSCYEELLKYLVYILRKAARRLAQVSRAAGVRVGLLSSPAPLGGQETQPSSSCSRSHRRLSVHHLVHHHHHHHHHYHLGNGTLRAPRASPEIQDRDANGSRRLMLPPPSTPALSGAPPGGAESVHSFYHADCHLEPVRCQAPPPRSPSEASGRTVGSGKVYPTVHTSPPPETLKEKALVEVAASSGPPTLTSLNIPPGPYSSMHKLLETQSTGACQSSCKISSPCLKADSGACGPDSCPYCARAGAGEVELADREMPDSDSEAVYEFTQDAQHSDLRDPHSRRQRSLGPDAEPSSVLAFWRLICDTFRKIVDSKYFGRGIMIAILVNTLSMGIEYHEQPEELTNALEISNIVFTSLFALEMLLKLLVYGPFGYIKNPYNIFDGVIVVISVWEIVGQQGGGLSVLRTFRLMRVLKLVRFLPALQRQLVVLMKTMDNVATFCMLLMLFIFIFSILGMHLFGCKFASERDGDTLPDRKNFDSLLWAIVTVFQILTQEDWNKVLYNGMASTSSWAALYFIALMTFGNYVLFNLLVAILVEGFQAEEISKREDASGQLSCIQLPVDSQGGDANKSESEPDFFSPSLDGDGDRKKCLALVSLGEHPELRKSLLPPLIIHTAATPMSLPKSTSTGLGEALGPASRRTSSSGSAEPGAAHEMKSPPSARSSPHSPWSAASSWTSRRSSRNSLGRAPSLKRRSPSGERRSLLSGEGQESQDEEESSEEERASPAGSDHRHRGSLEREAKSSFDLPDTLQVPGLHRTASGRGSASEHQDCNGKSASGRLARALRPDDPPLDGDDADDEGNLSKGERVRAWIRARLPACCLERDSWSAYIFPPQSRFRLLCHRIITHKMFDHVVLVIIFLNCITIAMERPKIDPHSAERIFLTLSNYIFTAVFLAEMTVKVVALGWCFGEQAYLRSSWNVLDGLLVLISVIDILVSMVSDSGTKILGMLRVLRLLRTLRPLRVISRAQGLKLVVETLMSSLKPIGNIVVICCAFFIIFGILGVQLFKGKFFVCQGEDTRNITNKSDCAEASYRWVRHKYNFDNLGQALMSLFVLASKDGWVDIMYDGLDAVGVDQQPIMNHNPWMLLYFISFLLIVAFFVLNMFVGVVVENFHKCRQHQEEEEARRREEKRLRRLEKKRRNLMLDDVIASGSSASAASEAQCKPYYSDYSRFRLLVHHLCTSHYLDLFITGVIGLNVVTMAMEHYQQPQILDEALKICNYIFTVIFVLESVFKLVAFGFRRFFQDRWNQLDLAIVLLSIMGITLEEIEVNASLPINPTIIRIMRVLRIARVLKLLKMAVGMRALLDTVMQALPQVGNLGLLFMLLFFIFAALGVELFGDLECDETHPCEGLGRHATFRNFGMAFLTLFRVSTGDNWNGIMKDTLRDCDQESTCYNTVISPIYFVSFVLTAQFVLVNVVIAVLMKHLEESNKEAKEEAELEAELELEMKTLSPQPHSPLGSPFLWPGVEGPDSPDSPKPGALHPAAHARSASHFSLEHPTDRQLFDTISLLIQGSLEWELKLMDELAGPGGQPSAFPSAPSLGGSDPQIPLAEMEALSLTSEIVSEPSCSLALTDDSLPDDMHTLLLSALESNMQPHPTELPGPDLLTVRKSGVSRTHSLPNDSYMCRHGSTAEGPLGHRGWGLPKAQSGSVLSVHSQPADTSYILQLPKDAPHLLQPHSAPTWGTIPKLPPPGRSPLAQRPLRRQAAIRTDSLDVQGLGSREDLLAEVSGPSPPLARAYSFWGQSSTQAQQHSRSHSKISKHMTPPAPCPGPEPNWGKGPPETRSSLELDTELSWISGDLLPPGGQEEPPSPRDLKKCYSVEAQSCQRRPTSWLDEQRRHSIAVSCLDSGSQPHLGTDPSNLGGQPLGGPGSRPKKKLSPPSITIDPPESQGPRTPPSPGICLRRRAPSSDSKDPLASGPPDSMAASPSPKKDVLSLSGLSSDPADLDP
Outline: as §1

Structure (SMILES)	Epilepsy 6 Hz (% protected) 0.25 hr (male CF1 mice) [%]	Epilepsy 6 Hz (% protected) 0.5 hr (male CF1 mice) [%]	Epilepsy 6 Hz (% protected) 1 hr (male CF1 mice) [%]	Epilepsy 6 Hz (% protected) 2 hr (male CF1 mice) [%]	Epilepsy 6 Hz (% protected) 4 hr (male CF1 mice) [%]	EPILEPSY ROTAROD (% IMPAIRED) 0.25 hr (mice [1]) [%]	EPILEPSY ROTAROD (% IMPAIRED) 0.5 hr (mice [1]) [%]	EPILEPSY ROTAROD (% IMPAIRED) 1 hr (mice [1]) [%]	EPILEPSY ROTAROD (% IMPAIRED) 2 hr (mice [1]) [%]	EPILEPSY ROTAROD (% IMPAIRED) 4 hr (mice [1]) [%]	IC50 [2] [nM]	EPILEPSY ROTAROD (% IMPAIRED) 0.25 hr (mice [3]) [%]	EPILEPSY ROTAROD (% IMPAIRED) 0.5 hr (mice [3]) [%]	EPILEPSY ROTAROD (% IMPAIRED) 1 hr (mice [3]) [%]	EPILEPSY ROTAROD (% IMPAIRED) 2 hr (mice [3]) [%]	EPILEPSY ROTAROD (% IMPAIRED) 4 hr (mice [3]) [%]	pIC50 [4]	pIC50 [5]
O=C(NCC1CC(S(=O)(=O)c2cc(F)cc(C(F)(F)F)c2)C1)c1cc(F)cc(Cl)c1 [Compound 396, 3-chloro-5-fluoro-N-(((1R,3R)-3-(3-fluoro-5-(trifluoromethyl)phenylsulfonyl)cyclobutyl)methyl)benzamide]	50	0	0	25	0	0	0	0	0	0	940	–	–	–	–	–	–	–
CC(C)S(=O)(=O)c1cc(C(F)(F)F)cnc1C(=O)NC[C@H]1C[C@H](S(=O)(=O)c2cccc(C(F)(F)F)c2)C1 [Compound 374, 3-(isopropylsulfonyl)-5-(trifluoromethyl)-N-(((1R,3R)-3-(3-(trifluoromethyl)phenylsulfonyl)cyclobutyl)methyl)picolinamide]	0	0	0	0	0	–	–	–	–	–	250	0	0	0	0	0	5.68	5.11
O=C(NCC1(O)CCC(S(=O)(=O)c2cccc(C(F)(F)F)c2)CC1)c1ccc(F)c(Cl)c1 [Compound 230, 3-chloro-4-fluoro-N-(((1S,4S)-1-hydroxy-4-(3-(trifluoromethyl)phenylsulfonyl)cyclohexyl)methyl)benzamide]	0	25	25	100	0	0	0	0	0	0	790	–	–	–	–	–	–	5.93
O=C(NC1CCC(F)(S(=O)(=O)c2cccc(C(F)(F)F)c2)CC1)c1nocc1C1CC1 [Compound 272, 4-cyclopropyl-N-((1S,4S)-4-fluoro-4-(3-(trifluoromethyl)phenylsulfonyl)cyclohexyl) isoxazole-3-carboxamide]	0	0	0	0	0	–	–	–	–	–	430	0	0	0	0	0	< 5.00	< 5.00
CC(C)(C1CC(NC(=O)c2cn3cc(C(F)(F)F)ccc3n2)C1)S(=O)(=O)c1cccc(C(F)(F)F)c1 [Compound 438, 6-(trifluoromethyl)-N-((1R,3R)-3-(2-(3-(trifluoromethyl)phenylsulfonyl)propan-2-yl)cyclobutyl)imidazo[1,2-a]pyridine-2-carboxamide]	75	0	0	25	0	0	0	0	0	0	400	–	–	–	–	–	–	–
O=C(NC1CCC(F)(S(=O)(=O)c2cccc(C(F)(F)F)c2)CC1)[C@@H]1C[C@@H](c2ccccc2)CN1 (stereo partly drawn) [Compound 285, (2S,4S)-N-((1S,4R)-4-fluoro-4-(3-(trifluoromethyl)phenylsulfonyl)cyclohexyl)-4-phenylpyrrolidine-2-carboxamide]	0	100	100	100	0	–	–	–	–	–	–	100	100	100	100	0	–	–
O=S(=O)(c1cccc(C(F)(F)F)c1)C1CC(c2c[nH]c(C(F)(F)F)n2)C1 [Compound 442, 2-(trifluoromethyl)-4-((1R,3R)-3-(3-(trifluoromethyl)phenylsulfonyl)cyclobutyl)-1H-imidazole]	50	25	75	0	0	0	0	0	0	0	2840	–	–	–	–	–	–	–
CS(=O)(=O)c1cc(C(F)(F)F)ccc1C(=O)NCC1CC(S(=O)(=O)c2cccc(C(F)(F)F)c2)C1 [Compound 356, 2-(methylsulfonyl)-4-(trifluoromethyl)-N-(((1R,3R)-3-(3-(trifluoromethyl)phenylsulfonyl)cyclobutyl)methyl)benzamide]	25	0	0	0	0	0	0	0	0	0	570	–	–	–	–	–	5.50	5.02
CS(=O)(=O)c1nc(C(F)(F)F)ccc1C(=O)NCC1CC(S(=O)(=O)c2cccc(C(F)(F)F)c2)C1 [Compound 365, 2-(methylsulfonyl)-6-(trifluoromethyl)-N-(((1R,3R)-3-(3-(trifluoromethyl)phenylsulfonyl)cyclobutyl)methyl)nicotinamide]	25	50	50	25	25	–	–	–	–	–	1610	0	0	0	0	0	5.66	5.19
